Data published in paper PMC8270270, “Rosin Derivatives as a Platform for the Antiviral Drug Design” (Molecules, 2021).
≈ marks a conversion by molar mass, not a printed value. Like-named read-outs stand apart in the source and are kept apart here.

Tests used:
Candida tropicalis = assay: Disco-diffuse method, fungicidal activity; format: cell-based; conditions: for zone of inhibition at 1000 µg/mL / zone of inhibition at 5000 µg/mL / zone of inhibition at 10000 µg/mL / zone of inhibition at 25000 µg/mL / zone of inhibition at 50000 µg/mL: Candida tropicalis, 48 h at 32 °C, read-out: The Zone of Growth Inhibition; for zone of inhibition at 1000 µg/mL: compound concentration 1 mg/mL; for zone of inhibition at 5000 µg/mL: compound concentration 5 mg/mL; for zone of inhibition at 10000 µg/mL: compound concentration 10 mg/mL; for zone of inhibition at 25000 µg/mL: compound concentration 25 mg/mL; for zone of inhibition at 50000 µg/mL: compound concentration 50 mg/mL
Experimental: (§1) The determination of compounds (I, IV, VI–XI) effect concerning microorganisms was carried out using test strains of Escherichia coli, Bacillus subtilis, and Candida tropicalis. They are not only natural inhabitants of natural biocenoses but also a part of human microbiocenosis. Used microorganisms of bacteria were selected as representatives of the Gram-positive and Gram-negative human microbiota. The antibacterial activity of compounds (I, IV, VI–XI) was studied by the disco-diffuse method. The strain culture was transferred sterile from the mown agar into test tubes with 5 mL of nutrient medium to obtain a “night culture” 12–15 h before the experiment. Beef-extract agar (BEA) was used as a nutrient medium for the development of bacterial cells, and Sabouraud’s medium was used for yeast. Bacterial cultures were incubated in a thermostat at 37 °C, and yeast cultures at 32 °C. The melted BEA was poured sterile into Petri dishes (diameter 90 mm) and evenly distributed over the bottom of the dish, covered with a lid, and left on the table until it solidified completely. Next, the dishes with BEA were inoculated with a “lawn” by introducing a strain culture (suspension titer −1–2 × 10^8 CFU/mL) in an amount of 500 µL and evenly distributing it with a sterile spatula. The dishes were left for 60–90 min to dry the culture. Compounds (I, IV, VI–XI) were previously dissolved, and the sequential dilutions were applied to disks. Dimethyl sulfoxide (DMSO) was used as a solvent for the DAA. Water was used as a solvent for their potassium salts. […] This disk was impregnated with a solution of the test compound amounting to 100 μL and incubated in the dark for 24 h at 37 °C (Escherichia coli and Bacillus subtilis) and 48 h at 32 °C (Candida tropicalis). The solution diffuses, forming a concentration gradient of the test compound around the disc. After the incubation period, the inhibition zone or stimulation of microbial growth around the disk was measured in the experimental and control samples. A conclusion was made about the degree (bactericidal) toxicity of compounds. Solvent-treated disks (DMSO) were used as controls. The experiments were performed three times.

Escherichia coli = assay: Disco-diffuse method, antibacterial activity; format: cell-based; conditions: for zone of inhibition at 1000 µg/mL / zone of inhibition at 5000 µg/mL / zone of inhibition at 10000 µg/mL / zone of inhibition at 25000 µg/mL / MIC / zone of inhibition at 50000 µg/mL: Escherichia coli; for zone of inhibition at 1000 µg/mL: compound concentration 1 mg/mL; for zone of inhibition at 1000 µg/mL / zone of inhibition at 5000 µg/mL / zone of inhibition at 10000 µg/mL / zone of inhibition at 25000 µg/mL / zone of inhibition at 50000 µg/mL: read-out: The Zone of Growth Inhibition; for zone of inhibition at 5000 µg/mL: compound concentration 5 mg/mL; for zone of inhibition at 10000 µg/mL: compound concentration 10 mg/mL; for zone of inhibition at 25000 µg/mL: compound concentration 25 mg/mL; for MIC: from disc diffusion, read-out: minimum inhibitory concentration
Experimental: as §1

Bacillus subtilis = assay: Disco-diffuse method, antibacterial activity; format: cell-based; conditions: for zone of inhibition at 1000 µg/mL / zone of inhibition at 5000 µg/mL / zone of inhibition at 10000 µg/mL / zone of inhibition at 25000 µg/mL / MIC / zone of inhibition at 50000 µg/mL: Bacillus subtilis; for zone of inhibition at 1000 µg/mL: compound concentration 1 mg/mL; for zone of inhibition at 1000 µg/mL / zone of inhibition at 5000 µg/mL / zone of inhibition at 10000 µg/mL / zone of inhibition at 25000 µg/mL / zone of inhibition at 50000 µg/mL: read-out: The Zone of Growth Inhibition; for zone of inhibition at 5000 µg/mL: compound concentration 5 mg/mL; for zone of inhibition at 10000 µg/mL: compound concentration 10 mg/mL; for zone of inhibition at 25000 µg/mL: compound concentration 25 mg/mL; for MIC: from disc diffusion, read-out: minimum inhibitory concentration
Experimental: as §1

[1] = tested on: A/California/07/09 ((A)H1N1pdm09) viral strain; format: cell-based, influenza virus
A549 cell culture = assay: Cytotoxicity, colorimetric MTT assay; format: cell-based, human; conditions: for Cytotoxicity (in words): A549, MTT assay; for IC50: Homo sapiens, read-out: Determined IC50
Experimental: The cytotoxicity of compounds (I–V) was assessed on A549 cell culture using a colorimetric MTT assay. A549 cells were incubated for 24 h at 37 °C, 5% CO2 with solutions of the studied compounds at various concentrations. Next, the cell monolayer was washed, and MTT solution was added in a volume of 0.1 mL at a concentration of […]. After 1 h of MTT contact with the cells, the wells were washed, and the formed formazan crystals were dissolved in 0.1 mL of DMSO. The results were recorded at 560 nm on a CLARIOstar Plus plate photometer (BMG LABTECH, Ortenberg, Germany). The IC50 was calculated using GraphPad Prism 6.0.

[2] = compound concentration 50 mg/mL, 24 h at 37 °C
[3] = at the working concentrations used to assess antiviral activity
[4] = A549, therapeutic scheme, 24 h after stimulation, working concentration

## CC(C)c1cc2c(cc1Br)C1(C)CCCC(C)(C(=O)O)C1CC2 (centres unmarked) [X, 12-bromodehydroabietic acid]
Candida tropicalis
  zone of inhibition at 1000 µg/mL: 0 mm
  zone of inhibition at 5000 µg/mL: 0 mm
  zone of inhibition at 10000 µg/mL: 0 mm
  zone of inhibition at 25000 µg/mL: 1.1 ± 0.24 mm
  zone of inhibition at 50000 µg/mL: 1.9 ± 0.16 mm
Escherichia coli; 24 h at 37 °C
  zone of inhibition at 1000 µg/mL: 0.9 ± 0.1 mm
  zone of inhibition at 5000 µg/mL: 2 ± 0.07 mm
  zone of inhibition at 10000 µg/mL: 7.6 ± 0.03 mm
  zone of inhibition at 25000 µg/mL: 4.6 ± 0.05 mm
Escherichia coli; 1-50 mg/mL
  MIC: 1000 µg/mL (≈ 2.64 mM)
Escherichia coli; [2]
  The Zone of Growth Inhibition: Does not diff
Bacillus subtilis; 24 h at 37 °C
  zone of inhibition at 1000 µg/mL: 3.1 ± 0.25 mm
  zone of inhibition at 5000 µg/mL: 9.5 ± 0.05 mm
  zone of inhibition at 10000 µg/mL: 9.7 ± 0.04 mm
  zone of inhibition at 25000 µg/mL: 10.5 ± 0.03 mm
Bacillus subtilis; 1-50 mg/mL
  MIC: 1000 µg/mL (≈ 2.64 mM)
Bacillus subtilis; [2]
  The Zone of Growth Inhibition: Does not diff

## CC(C)c1cc2c(cc1S(=O)(=O)O)C1(C)CCCC(C)(C(=O)O)C1CC2 (centres unmarked) [I, 12-sulfodehydroabietic acid]
Candida tropicalis; 1-50 mg/mL
  Fungicidal activity (in words): did not show either antibacterial activity or fungicidal activity
Candida tropicalis
  zone of inhibition at 1000 µg/mL: 0 mm
  zone of inhibition at 5000 µg/mL: 0 mm
  zone of inhibition at 10000 µg/mL: 0 mm
  zone of inhibition at 25000 µg/mL: 0 mm
  zone of inhibition at 50000 µg/mL: 0 mm
Escherichia coli; 1-50 mg/mL
  Antibacterial activity (in words): did not show either antibacterial activity or fungicidal activity
Escherichia coli; 24 h at 37 °C
  zone of inhibition at 1000 µg/mL: 0 mm
  zone of inhibition at 5000 µg/mL: 0 mm
  zone of inhibition at 10000 µg/mL: 0 mm
  zone of inhibition at 25000 µg/mL: 0 mm
Escherichia coli; [2]
  zone of inhibition at 50000 µg/mL: 0 mm
Bacillus subtilis; 1-50 mg/mL
  Antibacterial activity (in words): did not show either antibacterial activity or fungicidal activity
Bacillus subtilis; 24 h at 37 °C
  zone of inhibition at 1000 µg/mL: 0 mm
  zone of inhibition at 5000 µg/mL: 0 mm
  zone of inhibition at 10000 µg/mL: 0 mm
  zone of inhibition at 25000 µg/mL: 0 mm
Bacillus subtilis; [2]
  zone of inhibition at 50000 µg/mL: 0 mm
[1]; A549, in vitro, working concentration
  Antiviral activity (in words): did not show antiviral activity
A549 cell culture
  Cytotoxicity (in words): weak toxicity
A549 cell culture; A549, 24 h incubation, MTT assay
  IC50: > 518 µg/mL
A549 cell culture; [3]
  Cell viability (in words): did not cause a significant decrease in cell viability

## CC(C)C1=CC2=CC[C@@H]3[C@](C)(CCC[C@@]3(C)C(=O)O)[C@H]2CC1 [IX, Abietic acid]
Candida tropicalis
  zone of inhibition at 1000 µg/mL: 0 mm
  zone of inhibition at 5000 µg/mL: 0 mm
  zone of inhibition at 10000 µg/mL: 0 mm
  zone of inhibition at 25000 µg/mL: 1 ± 0.11 mm
  zone of inhibition at 50000 µg/mL: 1 ± 0.15 mm
Escherichia coli; 24 h at 37 °C
  zone of inhibition at 1000 µg/mL: 0 mm
  zone of inhibition at 5000 µg/mL: 1 ± 0.1 mm
  zone of inhibition at 10000 µg/mL: 1 ± 0.1 mm
  zone of inhibition at 25000 µg/mL: 2 ± 0.24 mm
Escherichia coli; [2]
  zone of inhibition at 50000 µg/mL: 3 ± 0.14 mm
Escherichia coli; 1-50 mg/mL
  MIC: 5000 µg/mL (≈ 16.5 mM)
Bacillus subtilis; 24 h at 37 °C
  zone of inhibition at 1000 µg/mL: 1 ± 0.15 mm
  zone of inhibition at 5000 µg/mL: 2.1 ± 0.03 mm
  zone of inhibition at 10000 µg/mL: 2 ± 0.05 mm
  zone of inhibition at 25000 µg/mL: 4 ± 0.1 mm
Bacillus subtilis; [2]
  zone of inhibition at 50000 µg/mL: 5 ± 1.04 mm
Bacillus subtilis; 1-50 mg/mL
  MIC: 1000 µg/mL (≈ 3.31 mM)

## CC(C)C1=CC2=CCC3C(C)(CO)CCCC3(C)C2CC1 (centres unmarked) [XI, Abietinol]
Candida tropicalis
  zone of inhibition at 1000 µg/mL: 0 mm
  zone of inhibition at 5000 µg/mL: 1 ± 0.1 mm
  zone of inhibition at 10000 µg/mL: 2 ± 0.1 mm
  zone of inhibition at 25000 µg/mL: 4 ± 0.25 mm
  zone of inhibition at 50000 µg/mL: 4.2 ± 0.15 mm
Escherichia coli; 24 h at 37 °C
  zone of inhibition at 1000 µg/mL: 0 mm
  zone of inhibition at 5000 µg/mL: 1 ± 0.1 mm
  zone of inhibition at 10000 µg/mL: 1 ± 0.1 mm
  zone of inhibition at 25000 µg/mL: 3.5 ± 0.21 mm
Escherichia coli; [2]
  zone of inhibition at 50000 µg/mL: 5 ± 0.14 mm
Escherichia coli; 1-50 mg/mL
  MIC: 5000 µg/mL (≈ 17.3 mM)
Bacillus subtilis; 24 h at 37 °C
  zone of inhibition at 1000 µg/mL: 1 ± 0.15 mm
  zone of inhibition at 5000 µg/mL: 2.2 ± 0.05 mm
  zone of inhibition at 10000 µg/mL: 2 ± 0.15 mm
  zone of inhibition at 25000 µg/mL: 4 ± 0.12 mm
Bacillus subtilis; [2]
  zone of inhibition at 50000 µg/mL: 4 ± 0.09 mm
Bacillus subtilis; 1-50 mg/mL
  MIC: 1000 µg/mL (≈ 3.47 mM)

## CC(C)c1cc2c(cc1Br)C1(C)CCCC(C)(C(=O)[O-])C1CC2.[K+] (centres unmarked) [III, Potassium 12-bromodehydroabietate]
[1]; [4]
  Content of viral protein NP inside the cells (ELISA): decrease in the content of the viral protein NP inside the cells
A549 cell culture
  Cytotoxicity (in words): highest cytotoxicity
A549 cell culture; A549, 24 h
  IC50: 140 µg/mL
A549 cell culture; [3]
  Decrease in viable cells: 50%

## CC(C)C1=CC2=CCC3C(C)(C(=O)[O-])CCCC3(C)C2CC1.[K+] (centres unmarked) [II, Potassium abietate]
[1]
  Dose-dependent antiviral effect: led to a decrease in the antiviral effect
[1]; [4]
  Content of viral protein NP inside the cells (ELISA): decrease in the content of the viral protein NP inside the cells
  Viral load in supernatants obtained from cells (NP ELISA), vs control: slight decrease in the viral load
A549 cell culture
  Cytotoxicity (in words): highest cytotoxicity
A549 cell culture; A549, 24 h
  IC50: 240 µg/mL
A549 cell culture; [3]
  Decrease in viable cells: 50%
